For this assay, the target named is human PCSK9 (Homo sapiens, UniProt Q8NBP7). In words: PCSK9 ligand binding assay (TR-FRET): interference with binding of human PCSK9 to human LDLR. The conditions noted are these: for IC50: Human PCSK9 Alexa Fluor 647 / Human LDLR extracellular domain-Europium Kryptate; for Max % inhibition: efficacy (Amax), 100% = 1 uM unlabeled human PCSK9, 0% = DMSO. In outline: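 Read-out was TR-FRET ratio (665 nm over 615 nm, 330 nm excitation) between Alexa Fluor 647-human PCSK9 (16 nM added) and Europium Kryptate-human LDLR ectodomain (4 nM added). Compound and PCSK9 were mixed 30 min before LDLR, then incubated 2 h. Inhibition was normalised to DMSO and unlabelled-PCSK9 controls, giving IC50 and Amax.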
Sequence of human PCSK9 (Q8NBP7 153-692): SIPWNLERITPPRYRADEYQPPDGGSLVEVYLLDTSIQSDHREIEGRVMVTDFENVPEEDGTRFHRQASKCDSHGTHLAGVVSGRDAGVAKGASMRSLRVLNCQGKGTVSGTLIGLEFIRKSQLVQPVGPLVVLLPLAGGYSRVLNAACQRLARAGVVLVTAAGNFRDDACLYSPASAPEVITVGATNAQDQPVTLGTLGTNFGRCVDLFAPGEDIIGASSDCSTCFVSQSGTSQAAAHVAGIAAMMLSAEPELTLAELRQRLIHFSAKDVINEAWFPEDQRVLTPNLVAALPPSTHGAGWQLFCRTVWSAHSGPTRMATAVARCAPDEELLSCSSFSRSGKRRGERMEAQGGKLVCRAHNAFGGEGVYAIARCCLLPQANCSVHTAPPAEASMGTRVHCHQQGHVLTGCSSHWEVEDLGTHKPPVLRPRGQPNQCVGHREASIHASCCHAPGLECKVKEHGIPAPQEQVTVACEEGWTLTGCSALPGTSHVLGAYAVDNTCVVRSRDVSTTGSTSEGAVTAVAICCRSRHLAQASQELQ
Sequence of human PCSK9 (Q8NBP7 31-152 partner limits assumed): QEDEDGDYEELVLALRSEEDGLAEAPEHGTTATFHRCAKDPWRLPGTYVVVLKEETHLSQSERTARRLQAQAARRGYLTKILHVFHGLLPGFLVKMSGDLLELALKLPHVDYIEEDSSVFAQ

Experimental findings from patent publication US11813306B2, “Cyclic tetramer compounds as proprotein convertase subtilisin/kexin type 9 (PCSK9) inhibitors for the treatment of metabolic disorders” (NOVARTIS AG, priority 2018, dated 2023) are described below.

As usually defined, the IC50 is the concentration at which inhibition is half-maximal. A high value points to lower potency.

Consider `COC[C@@H]1NC(=O)[C@H](CCF)N(Cc2ccc(Cl)cc2Oc2ccc(-c3cnc(CN(C)C)n3C)cc2)C(=O)C[C@@H](Cc2ccccc2)C(=O)N2CCC[C@@](Cc3ccc(Cl)cc3)(C2)NC1=O.Cl` [Compound 105, (3R,7S,10S,13R)-3-benzyl-6-(4-chloro-2-(4-(2-((dimethylamino)methyl)-1-methyl-1H-imidazol-5-yl)phenoxy)benzyl)-13-(4-chlorobenzyl)-7-(2-fluoroethyl)-10-(methoxymethyl)-1,6,9,12-tetraazabicyclo[11.3.1]heptadecane-2,5,8,11-tetraone hydrochloride], for which the IC50 amounted to 0.00612 µM and the Max % inhibition amounted to 97.0%.

`C[C@H]1C(=O)N[C@@H](CO)C(=O)N(C)[C@H](Cc2ccc(Cl)cc2)CN(C)C(=O)[C@H](Cc2ccccc2)CC(=O)N1Cc1ccc(Cl)cc1Oc1cc(F)c(-c2cnc(CN3CCCC3)n2C)c(F)c1.Cl` [Compound 106, (2S, 5S, 8R, 12R)-12-benzyl-1-(4-chloro-2-(3,5-difluoro-4-(1-methyl-2-(pyrrolidin-1-ylmethyl)-1H-imidazol-5-yl)phenoxy)benzyl)-8-(4-chlorobenzyl)-5-(hydroxymethyl)-2,7,10-trimethyl-1,4,7,10-tetraazacyclotetradecane-3,6,11,14-tetraone]: the IC50 turned out to be 0.00852 µM and the Max % inhibition is listed as 105.1%.

As for `C[C@@H](c1ccccc1)[C@@H]1CC(=O)N(Cc2ccc(Cl)cc2Oc2ccc(-c3cnc(CN4CCCC4)n3C)cc2)[C@@H](C)C(=O)N[C@@H](CO)C(=O)N(C)[C@H](Cc2ccc(Cl)cc2)CN(C)C1=O.Cl` [Compound 107, (2S, 5S, 8R, 12S)-1-(4-chloro-2-(4-(1-methyl-2-(pyrrolidin-1-ylmethyl)-1H-imidazol-5-yl)phenoxy)benzyl)-8-(4-chlorobenzyl)-5-(hydroxymethyl)-2,7,10-trimethyl-12-((R)-1-phenylethyl)-1,4,7,10-tetraazacyclotetradecane-3,6,11,14-tetraone], the IC50 was determined as 0.00783 µM and the Max % inhibition was found to be 105.6%.

Consider `C[C@H]1C(=O)N[C@@H](CO)C(=O)N(C)[C@H](Cc2ccc(Cl)cc2)CN(C)C(=O)[C@H](Cc2ccccc2)CC(=O)N1Cc1ccc(Cl)cc1Oc1ccc(-c2cnc(CN3CCCC3)n2C)cc1.Cl` [Compound 108, (2S, 5S, 8R, 12R)-12-benzyl-1-(4-chloro-2-(4-(1-methyl-2-(pyrrolidin-1-ylmethyl)-1H-imidazol-5-yl)phenoxy)benzyl)-8-(4-chlorobenzyl)-5-(hydroxymethyl)-2,7,10-trimethyl-1,4,7, 10-tetraazacyclotetradecane-3,6,11,14-tetraone], for which the 50% inhibitory concentration (IC50) came to 0.00932 µM and the Max % inhibition was found to be 104.6%.

For the compound `C[C@H](O)[C@@H]1NC(=O)[C@H](C)N(Cc2ccc(Cl)cc2Oc2ccc(-c3cnc(CN(C)C)n3C)cc2)C(=O)C[C@@H](Cc2ccccc2)C(=O)N2CCC[C@@](Cc3ccc(Cl)cc3)(C2)NC1=O` [Compound 109, (3R, 7S, 10S, 13R)-3-benzyl-6-(4-chloro-2-(4-(2-((dimethylamino)methyl)-1-methyl-1H-imidazol-5-yl)phenoxy)benzyl)-13-(4-chlorobenzyl)-10-((S)-1-hydroxyethyl)-7-methyl-1,6,9,12-tetraazabicyclo[11.3.1]heptadecane-2,5,8,11-tetraone], the IC50 came out at 0.0111 µM and the Max % inhibition is given as 82.0%.

Take `COC[C@@H]1NC(=O)[C@H](C)N(Cc2ccc(Cl)cc2Oc2ccc(-c3cnc(CN4CCCC4)n3C)cc2)C(=O)C[C@@H]([C@H]2COc3c(OC)cccc32)C(=O)N(C)C[C@@H](Cc2ccc(Cl)cc2)N(C)C1=O.Cl` [Compound 110, (2S, 5S, 8R, 12S)-1-(4-chloro-2-(4-(1-methyl-2-(pyrrolidin-1-ylmethyl)-1H-imidazol-5-yl)phenoxy)benzyl)-8-(4-chlorobenzyl)-12-((R)-7-methoxy-2,3-dihydrobenzofuran-3-yl)-5-(methoxymethyl)-2,7,10-trimethyl-1,4,7,10-tetraazacyclotetradecane-3,6,11,14-tetraone]: the IC50 worked out at 0.0102 µM and the Max % inhibition worked out at 102.2%.

Take `COC[C@@H]1NC(=O)[C@H](C)N(Cc2ccc(Cl)cc2Oc2ccc(-c3cnc(CN4CCCC4)n3C)cc2)C(=O)C[C@@H]([C@H]2CC(C)(C)c3ccccc32)C(=O)N(C)C[C@@H](Cc2ccc(Cl)cc2)N(C)C1=O.Cl` [Compound 111, (2S, 5S, 8R, 12S)-1-(4-chloro-2-(4-(1-methyl-2-(pyrrolidin-1-ylmethyl)-1H-imidazol-5-yl)phenoxy)benzyl)-8-(4-chlorobenzyl)-12-((R)-3,3-dimethyl-2,3-dihydro-1H-inden-1-yl)-5-(methoxymethyl)-2,7,10-trimethyl-1,4,7,10-tetraazacyclotetradecane-3,6,11,14-tetraone]: the IC50 stood at 0.0114 µM and the Max % inhibition is given as 102.4%.

With `CC[C@@H]1CC(=O)N(Cc2c(OCC(F)(F)F)cc(Cl)cc2Oc2ccc(-c3cnc(CN4CCCC4)n3C)cc2)[C@@H](C)C(=O)N[C@@H](CO)C(=O)N(C)[C@H](Cc2ccc(Cl)cc2)CNC1=O.Cl` [Compound 112, (2S, 5S, 8R, 12R)-1-(4-chloro-2-(4-(1-methyl-2-(pyrrolidin-1-ylmethyl)-1H-imidazol-5-yl)phenoxy)-6-(2,2,2-trifluoroethoxy)benzyl)-8-(4-chlorobenzyl)-12-ethyl-5-(hydroxymethyl)-2,7-dimethyl-1,4,7,10-tetraazacyclotetradecane-3,6,11,14-tetraone], the IC50 is 0.0135 µM and the Max % inhibition is listed as 98.8%.

In the case of `COC[C@@H]1NC(=O)[C@H](C)N(Cc2ccc(Cl)cc2Oc2ccc(-c3cnc(CN4CCCC4)n3C)cc2)C(=O)C[C@@H]([C@H]2CCc3ccccc32)C(=O)N(CCC(F)F)C[C@@H](Cc2ccc(Cl)cc2)N(C)C1=O.Cl` [Compound 113], the IC50 came out at 0.0216 µM and the Max % inhibition is 102.5%.

As for `COC[C@@H]1NC(=O)[C@H](C)N(Cc2ccc(Cl)cc2Oc2ccc(-c3cnc(CN4CCCC4)n3C)cc2)C(=O)C[C@@H](Cc2ccccc2)C(=O)N(C)C[C@@H](Cc2ccc(Cl)cc2)N(C)C1=O.Cl` [Compound 114, (2S, 5S, 8R, 12R)-12-benzyl-1-(4-chloro-2-(4-(1-methyl-2-(pyrrolidin-1-ylmethyl)-1H-imidazol-5-yl)phenoxy)benzyl)-8-(4-chlorobenzyl)-5-(methoxymethyl)-2,7,10-trimethyl-1,4,7,10-tetraazacyclotetradecane-3,6,11,14-tetraone], the IC50 is 0.0214 µM and the Max % inhibition came to 95.9%.

As to `COC[C@@H]1NC(=O)[C@H](C)N(Cc2ccc(Cl)cc2Oc2ccc(-c3cnc(CN4CCCC4)n3C)cc2)C(=O)C[C@@H]([C@H]2CCc3ccccc32)C(=O)N(CC2(C)CC2)C[C@@H](Cc2ccc(Cl)cc2)N(C)C1=O.Cl` [Compound 115, (2S, 5S, 8R, 12S)-1-(4-chloro-2-(4-(1-methyl-2-(pyrrolidin-1-ylmethyl)-1H-imidazol-5-yl)phenoxy)benzyl)-8-(4-chlorobenzyl)-12-((R)-2,3-dihydro-1H-inden-1-yI)-5-(methoxymethyl)-2,7-dimethyl-10-((1-methylcyclopropyl)methyl)-1,4,7,10-tetraazacyclotetradecane-3,6,11,14-tetraone], the IC50 turned out to be 0.025 µM and the Max % inhibition is listed as 99.0%.

For `COC[C@@H]1NC(=O)[C@H](C)N(Cc2ccc(Cl)cc2Oc2ccc(-c3cnc(CN4CCCC4)n3C)cc2)C(=O)C[C@@H](Cc2ccccc2)C(=O)N(CCCN(C)C)C[C@@H](Cc2ccc(Cl)cc2)N(C)C1=O.Cl` [Compound 116, (2S, 5S, 8R, 12R)-12-benzyl-1-(4-chloro-2-(4-(1-methyl-2-(pyrrolidin-1-ylmethyl)-1H-imidazol-5-yl)phenoxy)benzyl)-8-(4-chlorobenzyl)-10-(3-(dimethylamino)propyl)-5-(methoxymethyl)-2,7-dimethyl-1,4,7,10-tetraazacyclotetradecane-3,6,11,14-tetraone], the IC50 was determined as 0.0197 µM and the Max % inhibition is listed as 104.9%.

On to `COC[C@@H]1NC(=O)[C@H](C)N(Cc2ccc(Cl)cc2Oc2cc(F)c(-c3cnc(CN4CCCC4)n3C)c(F)c2)C(=O)C[C@@H](Cc2ccccc2)C(=O)N(C)C[C@@H](Cc2ccc(Cl)cc2)N(C)C1=O.Cl` [Compound 117, (2S, 5S, 8R, 12R)-12-benzyl-1-(4-chloro-2-(3,5-difluoro-4-(1-methyl-2-(pyrrolidin-1-ylmethyl)-1H-imidazol-5-yl)phenoxy)benzyl)-8-(4-chlorobenzyl)-5-(methoxymethyl)-2,7,10-trimethyl-1,4,7,10-tetraazacyclotetradecane-3,6,11,14-tetraone], for which the IC50 was 0.0351 µM and the Max % inhibition is given as 98.9%.

In the case of `CCc1ccc(CN2C(=O)C[C@@H]([C@@H]3CCc4ccccc43)C(=O)N(C)C[C@H](Cc3ccc(Cl)cc3)N(C)C(=O)[C@H](CO)NC(=O)[C@@H]2C)c(Oc2ccc(-c3cnc(CN(C)C)n3C)cc2)c1` [Compound 118, (2S, 5S, 8S, 12S)-8-(4-chlorobenzyl)-12-((S)-2,3-dihydro-1H-inden-1-yl)-1-(2-(4-(2-((dimethylamino)methyl)-1-methyl-1H-imidazol-5-yl)phenoxy)-4-ethylbenzyl)-5-(hydroxymethyl)-2,7,10-trimethyl-1,4,7,10-tetraazacyclotetradecane-3,6,11,14-tetraone], the IC50 is 0.0596 µM and the Max % inhibition is given as 95.2%.

Regarding `CCc1ccc(CN2C(=O)C[C@@H]([C@@H]3CCc4ccccc43)C(=O)N(C)C[C@@H](Cc3ccc(Cl)cc3)N(C)C(=O)[C@H](CO)NC(=O)[C@@H]2C)c(Oc2ccc(-c3cnc(CN(C)C)n3C)cc2)c1` [Compound 119, (2S,5S,8R,12S)-8-(4-Chlorobenzyl)-12-((S)-2,3-dihydro-1H-inden-1-yl)-1-(2-(4-(2-((dimethylamino)methyl)-1-methyl-1H-imidazol-5-yl)phenoxy)-4-ethylbenzyl)-5-(hydroxymethyl)-2,7,10-trimethyl-1,4,7,10-tetraazacyclotetradecane-3,6,11,14-tetraone], the IC50 stood at 0.0313 µM and the Max % inhibition was found to be 94.0%.
